Reference: US20130336940A1, “MODIFIED PIG ISLETS FOR DIABETES TREATMENT” (UNIVERSITE CATHOLIQUE DE LOUVAIN, priority 2011, published 2013)

What was measured:
[1] = system: adult pig islets; settings: cited from earlier work
[2] = system: isolated pig islets; assay: In vitro islet functionality (24 hr incubation at G5, G15, G15+Fsk; insulin/glucagon RIA); assay type: cell-based
Description: The following steps were performed with the samples kept on ice. […] The samples were then sonicated 4×20 seconds (Sonifier B 12 [Branson Sonic Power Company, Danbury, Conn., USA]) and centrifugated 10 minutes at 4° C. at 1500 rpm. The first supernatant formed was removed and kept at −20° C. […] The samples were then kept at −20° C. overnight. After a step of centrifugation 10 minutes at 4° C. at 1500 rpm, the second supernatant was removed and kept at −20° C. […] The three supernatants were then pooled and constituted the pancreas extract. Human insulin specific RIA KIT and Glucagon RIA KIT (Millipore, Billerica, Mass., USA) were used for the determination of the hormonal content in human/pig pancreatic extractions as well as in isolated islets (see below). The content of insulin and glucagon in the extracts was performed following the instructions of the manufacturer. […] After incubation overnight at room temperature, 1 mL of precipitating reagent were added, followed by incubation 20 minutes at 4° C. The samples were then centrifuged 20 minutes at 2000-3000×g at 4° C.
Three replicates per concentration were performed. Media were thereafter recovered for insulin and glucagon quantification and islets were transferred in acid-ethanol for hormones extraction and quantification by radioimmuno-assay (see above).

[3] = system: islets from wild-type pigs; assay: Insulin release of wild-type pig islets with exogenous GLP-1; assay type: cell-based
Description: After isolation from wild-type pigs, islets were incubated overnight at 37° C., 5% CO2/95% O2 in RMPI medium containing 10% heat-inactivated FCS, 100 IU/ml penicillin, 100 μg/ml streptomycin and 5 mmol/l glucose. The function of islets in different culture conditions was assessed by 2 or 24 hr incubation of 200 islets in 1.5 ml buffer containing (i) 1 mmol/l glucose, (ii) 15 mmol/l glucose, (iii) 15 mmol/l glucose+[…] Forskolin (fsk) (Calbiochem-Behring, San Diego, Calif.) (added from a 1 mmol/l stock solution in DMSO), (iv) 15 mmol/l glucose+1 μmol/l fsk, (v) 15 mmol/l glucose+5 nM GLP-1 (Sigma Aldrich), (vi) 15 mmol/l glucose+50 nM GLP-1, (vii) 15 mmol/l glucose+500 nM GLP-1, (viii) 15 mmol/l glucose+1 μmol/l fsk+50 nM GLP-1. Three replicates per concentration were performed. Media were thereafter recovered for insulin quantification and islets were transferred in acid-ethanol for hormones extraction and quantification by radioimmuno-assay (Human insulin RIA kit, Millipore, Billerica, Mass., USA).

[4] = 15 mmol/l glucose + 1 μmol/l Fsk, native and treated pig islets

glucagon: peptide hormone added to adult pig islets in cited literature studies
increase of stimulation index ([1]; acute exposure to 1 or 10 μM glucagon): 30%
basal insulin release in comparison with control situation ([1]; islets cultured in the presence of 10 μM glucagon): 2 fold

C=C[C@@]1(C)CC(=O)[C@]2(O)[C@@]3(C)[C@@H](O)CCC(C)(C)[C@@H]3[C@H](O)[C@H](OC(C)=O)[C@@]2(C)O1 [Fsk, Forskolin]
increase in insulin secretion after G15+Fsk in comparison with G5 and G15 ([2]; 1 μmol/l Fsk, native and treated islets): 2 to 4 fold
effect on glucagon secretion or content [2, 4]: No effect
effect on insulin content [2, 4]: No effect

GLP-1: exogenous GLP-1 (Sigma Aldrich) added to wild-type pig islets
increase of insulin release ([3]; 500 nM GLP-1, glucose 15 mM, 24 hrs incubation): 12%
stimulation index (ratio of insulin release at glucose 15 mM vs. 1 mM) ([3]; GLP-1 at 500 nM): significant increase
increase of insulin release in comparison to glucose 15 mM alone ([3]; GLP-1 at 50-500 nM, glucose 15 mM, 2 hrs incubation): 10%
